# Measured values published in PubChem BioAssay AID2060894 (Molecular Pharmacology Branch, DTP, NCI, 2025).
# pIC50: −log10 of the molar value.
# System: K12877-001-R-J1-PDC complex spheroid viability
# Assay: Anticancer human tumor K12877-001-R-J1-PDC patient-derived lung adenocarcinoma cell line growth inhibition [RAS]
# Details: for viability, T/C: stronger effect = lower value
# Procedure, shortened: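 Multi-cell-type spheroids: tumor cells plus HUVEC endothelial cells and mesenchymal stem cells. RAS-pathway inhibitors were combined with targeted agents, each dosed in half-log steps down from clinical Cmax, or from 10 microM when Cmax was unknown.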
# 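Further: spheroids exposed to agents for one week before readout.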
# 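Wherever viability, T/C is given: tumour cells co-cultured with HUVEC and mesenchymal stem cells in spheroids.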
smiles,measurement,setting,value
C[C@@H](NC(=O)c1ncnc(N)c1Cl)c1ncc(C(=O)Nc2cc(C(F)(F)F)c(Cl)cn2)s1 + C#Cc1c(F)ccc2cc(O)cc(-c3ncc4c(N5CC6CCC(C5)N6)nc(OCC56CCCN5CC(F)C6)nc4c3F)c12,pIC50,"curve of first compound, second compound 0.0316 µM",< 5.00
same,pIC50,"curve of first compound, second compound 0.1 µM",< 5.00
same,pIC50,"curve of first compound, second compound 0.316 µM",< 5.00
same,pIC50,"curve of first compound, second compound 1 µM",< 5.00
same,pIC50,"curve of first compound, second compound 3.16 µM",< 5.00
same,pIC50,"curve of first compound, second compound 10 µM",< 5.00
same,"viability, T/C","second compound 0.0316 µM, first compound 0.0316 µM",108%
same,"viability, T/C","second compound 0.0316 µM, first compound 0.1 µM",101%
same,"viability, T/C","second compound 0.0316 µM, first compound 0.316 µM",113%
same,"viability, T/C","second compound 0.0316 µM, first compound 1 µM",107%
same,"viability, T/C","second compound 0.0316 µM, first compound 3.16 µM",99%
same,"viability, T/C","second compound 0.0316 µM, first compound 10 µM",102%
same,"viability, T/C","second compound 0.1 µM, first compound 0.0316 µM",94.4%
same,"viability, T/C","second compound 0.1 µM, first compound 0.1 µM",96.2%
same,"viability, T/C","second compound 0.1 µM, first compound 0.316 µM",93.5%
same,"viability, T/C","second compound 0.1 µM, first compound 1 µM",103%
same,"viability, T/C","second compound 0.1 µM, first compound 3.16 µM",92.5%
same,"viability, T/C","second compound 0.1 µM, first compound 10 µM",97.9%
same,"viability, T/C","second compound 0.316 µM, first compound 0.0316 µM",96.9%
same,"viability, T/C","second compound 0.316 µM, first compound 0.1 µM",105%
same,"viability, T/C","second compound 0.316 µM, first compound 0.316 µM",97.4%
same,"viability, T/C","second compound 0.316 µM, first compound 1 µM",101%
same,"viability, T/C","second compound 0.316 µM, first compound 3.16 µM",108%
same,"viability, T/C","second compound 0.316 µM, first compound 10 µM",98.6%
same,"viability, T/C","second compound 1 µM, first compound 0.0316 µM",87.7%
same,"viability, T/C","second compound 1 µM, first compound 0.1 µM",105%
same,"viability, T/C","second compound 1 µM, first compound 0.316 µM",102%
same,"viability, T/C","second compound 1 µM, first compound 1 µM",108%
same,"viability, T/C","second compound 1 µM, first compound 3.16 µM",106%
same,"viability, T/C","second compound 1 µM, first compound 10 µM",98.9%
same,"viability, T/C","second compound 3.16 µM, first compound 0.0316 µM",107%
same,"viability, T/C","second compound 3.16 µM, first compound 0.1 µM",104%
same,"viability, T/C","second compound 3.16 µM, first compound 0.316 µM",104%
same,"viability, T/C","second compound 3.16 µM, first compound 1 µM",106%
same,"viability, T/C","second compound 3.16 µM, first compound 3.16 µM",111%
same,"viability, T/C","second compound 3.16 µM, first compound 10 µM",98.3%
same,"viability, T/C","second compound 10 µM, first compound 0.0316 µM",106%
same,"viability, T/C","second compound 10 µM, first compound 0.1 µM",91.7%
same,"viability, T/C","second compound 10 µM, first compound 0.316 µM",107%
same,"viability, T/C","second compound 10 µM, first compound 1 µM",98%
same,"viability, T/C","second compound 10 µM, first compound 3.16 µM",107%
same,"viability, T/C","second compound 10 µM, first compound 10 µM",96.7%
C#Cc1c(F)ccc2cc(O)cc(-c3ncc4c(N5CC6CCC(C5)N6)nc(OCC56CCCN5CC(F)C6)nc4c3F)c12 (stereo unspecified),"viability, T/C",compound 0.0316 µM,105% [middle of 8 runs]
same,"viability, T/C",compound 0.1 µM,107% [middle of 8 runs]
same,"viability, T/C",compound 0.316 µM,110% [middle of 8 runs]
same,"viability, T/C",compound 1 µM,110% [middle of 8 runs]
same,"viability, T/C",compound 3.16 µM,101% [middle of 8 runs]
same,"viability, T/C",compound 10 µM,96.5% [middle of 8 runs]
same,pIC50,"compound alone, run of 09/09/2024",< 5.00
CC(=O)OC12COC1CC(O)C1(C)C(=O)C(O)C3=C(C)C(OC(=O)C(O)C(NC(=O)OC(C)(C)C)c4ccccc4)CC(O)(C(OC(=O)c4ccccc4)C21)C3(C)C (stereo unspecified) + CCn1c(-c2cc(N3CCN(C)CC3)cnc2C(C)OC)c2c3cc(ccc31)-c1csc(n1)CC(NC(=O)C1CC1C)C(=O)N1CCCC(N1)C(=O)OCC(C)(C)C2,pIC50,"curve of first compound, second compound 0.000949 µM",> 7.50
same,pIC50,"curve of first compound, second compound 0.003 µM",> 7.50
same,pIC50,"curve of first compound, second compound 0.00949 µM",> 7.50
same,pIC50,"curve of first compound, second compound 0.03 µM",> 7.50
same,pIC50,"curve of first compound, second compound 0.0949 µM",> 7.50
same,pIC50,"curve of first compound, second compound 0.3 µM",> 7.50
same,"viability, T/C","second compound 0.000949 µM, first compound 0.0316 µM",7.37%
same,"viability, T/C","second compound 0.000949 µM, first compound 0.1 µM",5.79%
same,"viability, T/C","second compound 0.000949 µM, first compound 0.316 µM",4.69%
same,"viability, T/C","second compound 0.000949 µM, first compound 1 µM",5.58%
same,"viability, T/C","second compound 0.000949 µM, first compound 3.16 µM",7.53%
same,"viability, T/C","second compound 0.000949 µM, first compound 10 µM",12.1%
same,"viability, T/C","second compound 0.003 µM, first compound 0.0316 µM",5.77%
same,"viability, T/C","second compound 0.003 µM, first compound 0.1 µM",4.36%
same,"viability, T/C","second compound 0.003 µM, first compound 0.316 µM",3.51%
same,"viability, T/C","second compound 0.003 µM, first compound 1 µM",4.48%
same,"viability, T/C","second compound 0.003 µM, first compound 3.16 µM",5.26%
same,"viability, T/C","second compound 0.003 µM, first compound 10 µM",14%
same,"viability, T/C","second compound 0.00949 µM, first compound 0.0316 µM",5.17%
same,"viability, T/C","second compound 0.00949 µM, first compound 0.1 µM",4.24%
same,"viability, T/C","second compound 0.00949 µM, first compound 0.316 µM",3.37%
same,"viability, T/C","second compound 0.00949 µM, first compound 1 µM",3.68%
same,"viability, T/C","second compound 0.00949 µM, first compound 3.16 µM",4.57%
same,"viability, T/C","second compound 0.00949 µM, first compound 10 µM",12.9%
same,"viability, T/C","second compound 0.03 µM, first compound 0.0316 µM",4.63%
same,"viability, T/C","second compound 0.03 µM, first compound 0.1 µM",2.99%
same,"viability, T/C","second compound 0.03 µM, first compound 0.316 µM",3.02%
same,"viability, T/C","second compound 0.03 µM, first compound 1 µM",3.05%
same,"viability, T/C","second compound 0.03 µM, first compound 3.16 µM",4.55%
same,"viability, T/C","second compound 0.03 µM, first compound 10 µM",10.7%
same,"viability, T/C","second compound 0.0949 µM, first compound 0.0316 µM",4.19%
same,"viability, T/C","second compound 0.0949 µM, first compound 0.1 µM",2.73%
same,"viability, T/C","second compound 0.0949 µM, first compound 0.316 µM",2.45%
same,"viability, T/C","second compound 0.0949 µM, first compound 1 µM",2.46%
same,"viability, T/C","second compound 0.0949 µM, first compound 3.16 µM",3.56%
same,"viability, T/C","second compound 0.0949 µM, first compound 10 µM",9.41%
same,"viability, T/C","second compound 0.3 µM, first compound 0.0316 µM",3.57%
same,"viability, T/C","second compound 0.3 µM, first compound 0.1 µM",2.99%
same,"viability, T/C","second compound 0.3 µM, first compound 0.316 µM",2.53%
same,"viability, T/C","second compound 0.3 µM, first compound 1 µM",2.8%
same,"viability, T/C","second compound 0.3 µM, first compound 3.16 µM",4.22%
same,"viability, T/C","second compound 0.3 µM, first compound 10 µM",9.04%
